The test deals with AMPK. Description: AMPK activation, enzyme-linked immunosorbent assay. In kind it is biochemical. As to conditions: Table 12, compounds of Table 5. The method, boiled down:
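Read-out: ELISA, used to detect compound-driven activation of AMPK.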
With `O=C(O)c1ccc(CN2CCC(NC(=O)c3ccc(OC4CCN(c5ccc(C(F)(F)F)cc5)CC4)c(F)c3)CC2)cc1` [Compound 5-35, 4-((4-(3-fluoro-4-(1-(4-(trifluoromethyl)phenyl)piperidin-4-yloxy)benzamido)piperidin-1-yl)methyl)benzoic acid], the concentration giving a half-maximal response (EC50) fell in the range of 1000 to 10000 nM. As for `CC(C)(C)c1ccc(CN2CCC(Oc3ccc(C(=O)NC4CCN(c5ccccc5)CC4)cc3F)CC2)cc1` [Compound 5-36, 4-(1-(4-tert-butylbenzyl)piperidin-4-yloxy)-3-fluoro-N-(1-phenylpiperidin-4-yl)benzamide], the figure is under 1000 nM; as for `O=C(NC1CCN(Cc2ccccc2)CC1)c1ccc(OC2CCN(Cc3ccncc3)CC2)c(F)c1` [Compound 5-37, N-(1-benzylpiperidin-4-yl)-3-fluoro-4-(1-(pyridin-4-ylmethyl)piperidin-4-yloxy)benzamide], under 1000 nM; as for `O=C(NC1CCN(Cc2ccccc2)CC1)c1ccc(OC2CCN(Cc3cccnc3)CC2)c(F)c1` [Compound 5-38, N-(1-benzylpiperidin-4-yl)-3-fluoro-4-(1-(pyridin-3-ylmethyl)piperidin-4-yloxy)benzamide], 1000 to 10000 nM. In turn, `O=C(NC1CCN(Cc2ccccc2)CC1)c1ccc(OC2CCN(Cc3ccccn3)CC2)c(F)c1` [Compound 5-39, N-(1-benzylpiperidin-4-yl)-3-fluoro-4-(1-(pyridin-2-ylmethyl)piperidin-4-yloxy)benzamide] registered a concentration for a half-maximal effect (EC50) of 1000 to 10000 nM. As to `O=C(NC1CCN(C(=O)c2ccncc2)CC1)c1ccc(OC2CCN(c3ccc(C(F)(F)F)cc3)CC2)c(F)c1` [Compound 5-40, 3-fluoro-N-(1-isonicotinoylpiperidin-4-yl)-4-(1-(4-(trifluoromethyl)phenyl)piperidin-4-yloxy)benzamide], the EC50 was under 1000 nM. Take `N#Cc1ccc(CN2CCC(Oc3ccc(C(=O)NC4CCN(Cc5ccccc5)CC4)cc3F)CC2)cc1` [Compound 5-41, N-(1-benzylpiperidin-4-yl)-4-(1-(4-cyanobenzyl)piperidin-4-yloxy)-3-fluorobenzamide]: the EC50 was under 1000 nM. Take `N#Cc1ccc(CN2CCC(NC(=O)c3ccc(OC4CCN(c5ccc(C(F)(F)F)cc5)CC4)c(F)c3)CC2)cc1` [Compound 5-43, N-(1-(4-cyanobenzyl)piperidin-4-yl)-3-fluoro-4-(1-(4-(trifluoromethyl)phenyl)piperidin-4-yloxy)benzamide]: the half-maximal effective concentration (EC50) is under 1000 nM.

The compound `N#Cc1ccc(N2CCC(Oc3ccc(C(=O)NC4CCN(Cc5ccncc5)CC4)cc3F)CC2)cc1` [Compound 5-44, 4-(1-(4-cyanophenyl)piperidin-4-yloxy)-3-fluoro-N-(1-(pyridin-4-ylmethyl)piperidin-4-yl)benzamide] had an EC50 of under 1000 nM.

As to `N#Cc1ccc(CN2CCC(NC(=O)c3ccc(OC4CCN(c5ccc(C#N)cc5)CC4)c(F)c3)CC2)cc1` [Compound 5-45, N-(1-(4-cyanobenzyl)piperidin-4-yl)-4-(1-(4-cyanophenyl)piperidin-4-yloxy)-3-fluorobenzamide], the half-maximal effective concentration (EC50) is under 1000 nM. For the compound `O=C(NC1CCN(Cc2ccccc2)CC1)c1cccc(OC2CCN(c3ccc(C(F)(F)F)cc3)CC2)c1` [Compound 5-46, N-(1-benzylpiperidin-4-yl)-3-(1-(4-(trifluoromethyl)phenyl)piperidin-4-yloxy)benzamide], the EC50 is under 1000 nM.

The compound `O=C(NC1CCN(Cc2ccccc2)CC1)c1ccc(OC2CCN(c3ccc(C(F)(F)F)cc3)CC2)cc1Cl` [Compound 5-47, N-(1-benzylpiperidin-4-yl)-2-chloro-4-(1-(4-(trifluoromethyl)phenyl)piperidin-4-yloxy)benzamide] registered an EC50 of under 1000 nM. In the case of `N#Cc1ccc(N2CCC(Oc3cccc(C(=O)NC4CCN(Cc5ccccc5)CC4)c3)CC2)cc1` [Compound 5-48, N-(1-benzylpiperidin-4-yl)-3-(1-(4-cyanophenyl)piperidin-4-yloxy)benzamide], the EC50 was under 1000 nM. As for `N#Cc1ccc(N2CCC(Oc3ccc(C(=O)NC4CCN(Cc5ccccc5)CC4)c(Cl)c3)CC2)cc1` [Compound 5-49, N-(1-benzylpiperidin-4-yl)-2-chloro-4-(1-(4-cyanophenyl)piperidin-4-yloxy)benzamide], the figure is under 1000 nM.

Compound `N#Cc1ccc(CN2CCC(Oc3cccc(C(=O)NC4CCN(Cc5ccccc5)CC4)c3)CC2)cc1` [Compound 5-50, N-(1-benzylpiperidin-4-yl)-3-(1-(4-cyanobenzyl)piperidin-4-yloxy)benzamide] displayed an EC50 of 1000 to 10000 nM.

In turn, `N#Cc1ccc(CN2CCC(Oc3ccc(C(=O)NC4CCN(Cc5ccccc5)CC4)c(Cl)c3)CC2)cc1` [Compound 5-51, N-(1-benzylpiperidin-4-yl)-2-chloro-4-(1-(4-cyanobenzyl)piperidin-4-yloxy)benzamide] came in with an EC50 of under 1000 nM. In turn, `O=C(NC1CCN(Cc2ccccc2)CC1)c1cccc(OC2CCN(Cc3ccc(C(F)(F)F)cc3)CC2)c1` [Compound 5-52, N-(1-benzylpiperidin-4-yl)-3-(1-(4-(trifluoromethyl)benzyl)piperidin-4-yloxy)benzamide] came in with an EC50 of 1000 to 10000 nM.

For the compound `O=C(NC1CCN(Cc2ccccc2)CC1)c1cccc(OC2CCN(c3ccncc3)CC2)c1` [Compound 5-53, N-(1-benzylpiperidin-4-yl)-3-(1-(pyridin-4-yl)piperidin-4-yloxy)benzamide], the EC50 lay within 10000 to 20000 nM.

Turning to `O=C(NC1CCN(Cc2ccccc2)CC1)c1ccc(OC2CCN(Cc3ccc(OC(F)(F)F)cc3)CC2)c(Cl)c1` [Compound 5-54, N-(1-benzylpiperidin-4-yl)-3-chloro-4-(1-(4-(trifluoromethoxy)benzyl)piperidin-4-yloxy)benzamide], the EC50 was under 1000 nM. The compound `O=C(NC1CCN(Cc2ccccc2)CC1)c1ccc(OC2CCN(Cc3ccc(C(F)(F)F)cc3)CC2)c(F)c1` [Compound 5-55, N-(1-benzylpiperidin-4-yl)-3-fluoro-4-(1-(4-(trifluoromethyl)benzyl)piperidin-4-yloxy)benzamide] gave a concentration giving a half-maximal response (EC50) of under 1000 nM.

Turning to `O=C(NC1CCN(Cc2ccccc2)CC1)c1ccc(OC2CCN(Cc3ccc(C(F)(F)F)cc3)CC2)c(Cl)c1` [Compound 5-56, N-(1-benzylpiperidin-4-yl)-3-chloro-4-(1-(4-(trifluoromethyl)benzyl)piperidin-4-yloxy)benzamide], the EC50 is under 1000 nM.

`O=C(NC1CCN(Cc2ccccc2)CC1)c1ccc(OC2CCN(Cc3ccc(OC(F)(F)F)cc3)CC2)c(F)c1` [Compound 5-57, N-(1-benzylpiperidin-4-yl)-3-fluoro-4-(1-(4-(trifluoromethoxy)benzyl)piperidin-4-yloxy)benzamide] displayed an EC50 of under 1000 nM.

`CN1CCC(NC(=O)c2ccc(OC3CCN(Cc4ccc(C(F)(F)F)cc4)CC3)c(Cl)c2)CC1` [Compound 5-58, 3-chloro-N-(1-methylpiperidin-4-yl)-4-(1-(4-(trifluoromethyl)benzyl)piperidin-4-yloxy)benzamide]: the EC50 fell in the range of 1000 to 10000 nM. As to `O=C(NC1CCN(Cc2ccccc2)CC1)c1ccc(OC2CCN(Cc3cccc(C(F)(F)F)c3)CC2)c(F)c1` [Compound 5-59, N-(1-benzylpiperidin-4-yl)-3-fluoro-4-(1-(3-(trifluoromethyl)benzyl)piperidin-4-yloxy)benzamide], the EC50 was under 1000 nM. As for `O=C(NC1CCN(Cc2ccccc2)CC1)c1ccc(OC2CCN(Cc3cccc(C(F)(F)F)c3)CC2)c(Cl)c1` [Compound 5-60, N-(1-benzylpiperidin-4-yl)-3-chloro-4-(1-(3-(trifluoromethyl)benzyl)piperidin-4-yloxy)benzamide], the figure is under 1000 nM.

The compound `O=C(NC1CCN(Cc2ccccc2)CC1)c1ccc(OC2CCN(Cc3ccc(F)cc3)CC2)c(F)c1` [Compound 5-61, N-(1-benzylpiperidin-4-yl)-3-fluoro-4-(1-(4-fluorobenzyl)piperidin-4-yloxy)benzamide] came in with an EC50 of under 1000 nM. As for `O=C(NC1CCN(Cc2ccccc2)CC1)c1cc(Cl)c(OC2CCN(Cc3cccc(C(F)(F)F)c3)CC2)c(Cl)c1` [Compound 5-62, N-(1-benzylpiperidin-4-yl)-3,5-dichloro-4-(1-(3-(trifluoromethyl)benzyl)piperidin-4-yloxy)benzamide], the figure is under 1000 nM.

The compound `O=C(NC1CCN(Cc2ccccc2)CC1)c1ccc(OC2CCN(Cc3ccc(OC(F)(F)F)cc3)CC2)cc1` [Compound 5-63, N-(1-benzylpiperidin-4-yl)-4-(1-(4-(trifluoromethoxy)benzyl)piperidin-4-yloxy)benzamide] showed an EC50 of under 1000 nM. In the case of `O=C(NC1CCN(Cc2ccccc2)CC1)c1ccc(OC2CCN(Cc3ccc(Cl)cc3)CC2)c(F)c1` [Compound 5-64, N-(1-benzylpiperidin-4-yl)-4-(1-(4-chlorobenzyl)piperidin-4-yloxy)-3-fluorobenzamide], the EC50 was under 1000 nM. The compound `O=C(NC1CCN(Cc2ccccc2)CC1)c1ccc(OC2CCN(Cc3ccc(Cl)cc3)CC2)c(Cl)c1` [Compound 5-65, N-(1-benzylpiperidin-4-yl)-3-chloro-4-(1-(4-chlorobenzyl)piperidin-4-yloxy)benzamide] came in with an EC50 of under 1000 nM. Turning to `O=C(NC1CCN(Cc2ccc(F)cc2)CC1)c1ccc(OC2CCN(Cc3ccc(Cl)cc3)CC2)c(Cl)c1` [Compound 5-66, 3-chloro-4-(1-(4-chlorobenzyl)piperidin-4-yloxy)-N-(1-(4-fluorobenzyl)piperidin-4-yl)benzamide], the concentration giving a half-maximal response (EC50) was under 1000 nM. For `N#Cc1ccc(CN2CCC(Oc3ccc(C(=O)NC4CCN(Cc5ccccc5)CC4)cc3Cl)CC2)cc1` [Compound 5-67, N-(1-benzylpiperidin-4-yl)-3-chloro-4-(1-(4-cyanobenzyl)piperidin-4-yloxy)benzamide], the EC50 was under 1000 nM. Turning to `Cc1ccc(CN2CCC(Oc3ccc(C(=O)NC4CCN(Cc5ccc(F)cc5)CC4)cc3Cl)CC2)cc1` [Compound 5-68, 3-chloro-N-(1-(4-fluorobenzyl)piperidin-4-yl)-4-(1-(4-methylbenzyl)piperidin-4-yloxy)benzamide], the EC50 is under 1000 nM. The figure for `O=C(NC1CCN(Cc2ccccc2)CC1)c1ccc(OC2CCN(Cc3ccc(F)c(F)c3)CC2)c(F)c1` [Compound 5-69, N-(1-benzylpiperidin-4-yl)-4-(1-(3,4-difluorobenzyl)piperidin-4-yloxy)-3-fluorobenzamide] is under 1000 nM.

The values are drawn from patent US9409884B2 (Rigel Pharmaceuticals, Inc., priority 2012, dated 2016).
